Results taken from patent US8541588B2, “Sulfonamide derivatives” (Pfizer Limited, priority 2009, dated 2013).

biological target: T1, Nav1.7 (or SCN9A) channel; HEK cells stably transfected with hSCN9A (Homo sapiens, UniProt Q15858); experiment: Nav1.7 block, PatchXpress 7000 automated whole-cell voltage clamp, estimated IC50 (EIC50); assay type: cell-based; conditions: PatchXpress platform; hSCN9A HEK cells held at V1/2 of inactivation; estimated IC50
T1 construct: expressed in transfected cells
T1 sequence (Q15858 whole entry): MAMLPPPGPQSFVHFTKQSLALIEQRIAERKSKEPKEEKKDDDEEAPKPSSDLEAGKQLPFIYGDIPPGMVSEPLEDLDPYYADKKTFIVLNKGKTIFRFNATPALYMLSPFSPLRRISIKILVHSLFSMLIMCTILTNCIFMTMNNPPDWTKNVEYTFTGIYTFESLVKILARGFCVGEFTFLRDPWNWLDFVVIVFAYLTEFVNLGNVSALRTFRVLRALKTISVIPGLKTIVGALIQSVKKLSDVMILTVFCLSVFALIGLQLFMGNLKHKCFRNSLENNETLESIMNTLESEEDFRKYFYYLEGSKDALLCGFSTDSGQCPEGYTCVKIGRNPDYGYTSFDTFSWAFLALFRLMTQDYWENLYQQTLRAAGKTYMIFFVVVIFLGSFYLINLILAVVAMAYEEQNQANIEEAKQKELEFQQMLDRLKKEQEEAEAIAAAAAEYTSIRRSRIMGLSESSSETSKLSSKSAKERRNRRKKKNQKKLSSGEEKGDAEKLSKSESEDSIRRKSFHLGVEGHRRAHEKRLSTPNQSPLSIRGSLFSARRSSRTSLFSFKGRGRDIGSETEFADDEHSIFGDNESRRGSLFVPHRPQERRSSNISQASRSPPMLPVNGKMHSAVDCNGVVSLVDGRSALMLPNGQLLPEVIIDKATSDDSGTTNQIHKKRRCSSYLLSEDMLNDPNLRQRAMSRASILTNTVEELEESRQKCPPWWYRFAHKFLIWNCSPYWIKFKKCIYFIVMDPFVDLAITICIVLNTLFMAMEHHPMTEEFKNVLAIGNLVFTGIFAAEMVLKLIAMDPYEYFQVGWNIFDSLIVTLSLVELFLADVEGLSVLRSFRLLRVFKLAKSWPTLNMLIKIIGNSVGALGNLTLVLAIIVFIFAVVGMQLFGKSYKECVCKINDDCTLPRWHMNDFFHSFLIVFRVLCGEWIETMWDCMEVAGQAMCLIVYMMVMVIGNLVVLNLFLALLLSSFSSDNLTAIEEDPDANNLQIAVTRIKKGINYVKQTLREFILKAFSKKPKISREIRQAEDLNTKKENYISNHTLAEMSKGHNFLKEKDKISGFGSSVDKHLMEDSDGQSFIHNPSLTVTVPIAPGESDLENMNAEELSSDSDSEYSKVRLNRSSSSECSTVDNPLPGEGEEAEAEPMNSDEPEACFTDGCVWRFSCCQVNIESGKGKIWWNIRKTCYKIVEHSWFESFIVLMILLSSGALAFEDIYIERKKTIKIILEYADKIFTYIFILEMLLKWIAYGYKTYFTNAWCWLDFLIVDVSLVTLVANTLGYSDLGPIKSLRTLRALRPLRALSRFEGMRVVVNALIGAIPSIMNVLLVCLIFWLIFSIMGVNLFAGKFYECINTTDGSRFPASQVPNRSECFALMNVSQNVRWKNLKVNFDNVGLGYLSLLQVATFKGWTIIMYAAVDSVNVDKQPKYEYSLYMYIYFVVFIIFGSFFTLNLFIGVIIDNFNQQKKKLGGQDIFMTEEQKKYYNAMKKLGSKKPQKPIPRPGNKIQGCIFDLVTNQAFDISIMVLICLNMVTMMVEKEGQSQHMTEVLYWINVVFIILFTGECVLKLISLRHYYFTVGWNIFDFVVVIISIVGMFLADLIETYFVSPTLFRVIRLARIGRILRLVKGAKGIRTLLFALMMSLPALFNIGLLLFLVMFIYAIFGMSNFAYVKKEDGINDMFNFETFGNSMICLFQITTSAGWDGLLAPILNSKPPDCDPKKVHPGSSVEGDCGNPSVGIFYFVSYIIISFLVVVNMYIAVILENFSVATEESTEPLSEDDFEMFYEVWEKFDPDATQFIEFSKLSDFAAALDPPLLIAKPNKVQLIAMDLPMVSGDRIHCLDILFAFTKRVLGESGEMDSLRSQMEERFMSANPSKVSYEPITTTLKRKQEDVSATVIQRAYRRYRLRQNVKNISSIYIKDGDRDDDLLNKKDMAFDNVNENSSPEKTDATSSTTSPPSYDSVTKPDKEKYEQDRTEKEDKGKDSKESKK

IC50 | SMILES
70 nM | CC(C)Oc1cccc(-c2cc(F)ccc2Oc2ccc(S(=O)(=O)Nc3ncns3)cc2C#N)c1 [Example 5, 3-cyano-4-[(5-fluoro-3′-isopropoxybiphenyl-2-yl)oxy]-N-1,2,4-thiadiazol-5-ylbenzenesulfonamide]
50 nM | COc1ccc(-c2cc(F)ccc2Oc2ccc(S(=O)(=O)Nc3nccs3)cc2C#N)cn1 [Example 151, 3-cyano-4-[4-fluoro-2-(6-methoxypyridin-3-yl)phenoxy]-N-1,3-thiazol-2-ylbenzenesulfonamide]
3500 nM | Cc1ccc(-c2nc(N(C)C)ncc2Oc2ccc(S(=O)(=O)Nc3ncns3)cc2C#N)cc1 [Example 9, 3-cyano-4-{[2-(dimethylamino)-4-(4-methylphenyl)pyrimidin-5-yl]oxy}-N-1,2,4-thiadiazol-5-ylbenzenesulfonamide]
4160 nM | N#Cc1cc(S(=O)(=O)Nc2ccncn2)ccc1Oc1ccccc1-c1ccccc1 [Example 106, 4-(biphenyl-2-yloxy)-3-cyano-N-pyrimidin-4-ylbenzenesulfonamide]
230 nM | CCOC(=O)Cn1nccc1-c1cc(Cl)ccc1Oc1ccc(S(=O)(=O)Nc2ncns2)cc1C#N [Example 29, ethyl 2-(5-(2-(4-(N-1,2,4-thiadiazol-5-ylsulfamoyl)-2-cyanophenoxy)-5-chlorophenyl)-1H-pyrazol-1-yl)acetate]
3380 nM | Cc1cccc(-c2cccc(OC(C)C)c2)c1Oc1ccc(S(=O)(=O)Nc2ncns2)cc1C#N [Example 32, 3-cyano-4-[(3′-isopropoxy-3-methylbiphenyl-2-yl)oxy]-N-1,2,4-thiadiazol-5-ylbenzenesulfonamide]
190 nM | O=S(=O)(Nc1ncns1)c1cc(F)c(Oc2ccccc2-c2ccccc2)cc1Cl [Example 267, 4-(biphenyl-2-yloxy)-2-chloro-5-fluoro-N-1,2,4-thiadiazol-5-ylbenzenesulfonamide]
1900 nM | CN(C)C(=O)Cn1nccc1-c1cc(F)ccc1Oc1ccc(S(=O)(=O)Nc2nccs2)cc1F [Example 239, 2-(5-(5-fluoro-2-(2-fluoro-4-(N-thiazol-2-ylsulfamoyl)phenoxy)phenyl)-1H-pyrazol-1-yl)-N,N-dimethylacetamide]
37400 nM | O=S(=O)(Nc1nccs1)c1ccc(Oc2ccc(OCc3ccccc3)c(F)c2)c(F)c1 [Example 120, 4-[4-(benzyloxy)-3-fluorophenoxy]-3-fluoro-N-1,3-thiazol-2-ylbenzenesulfonamide]
2950 nM | O=S(=O)(Nc1nccs1)c1ccc(Oc2ccc(-c3ccccc3)cc2)c(F)c1 [Example 247, 4-(biphenyl-4-yloxy)-3-fluoro-N-thiazol-2-yl-benzenesulfonamide]

same assay, conditions: estimated IC50; hSCN9A HEK cells, PatchXpress platform; Examples 283-814

SMILES | IC50
Cn1nccc1-c1cc(F)ccc1Oc1cc(F)c(S(=O)(=O)Nc2cscn2)cc1Br [Example 625, 5-bromo-2-fluoro-4-[4-fluoro-2-(1-methyl-1H-pyrazol-5-yl)phenoxy]-N-1,3-thiazol-4-ylbenzenesulfonamide] | 18 nM
Cn1nccc1-c1ccc(F)cc1Oc1ccc(S(=O)(=O)Nc2nccs2)cc1C#N [Example 542, 3-cyano-4-[5-fluoro-2-(1-methyl-1H-pyrazol-5-yl)phenoxy]-N-1,3-thiazol-2-ylbenzenesulfonamide] | 66 nM
Cn1nccc1-c1nc(C(F)(F)F)ccc1Oc1cc(F)c(S(=O)(=O)Nc2cscn2)cc1Cl [Example 656, 5-chloro-2-fluoro-4-{[2-(1-methyl-1H-pyrazol-5-yl)-6-(trifluoromethyl)pyridin-3-yl]oxy}-N-1,3-thiazol-4-ylbenzenesulfonamide] | 270 nM
N#Cc1cc(S(=O)(=O)Nc2nccs2)ccc1Oc1ccc(-c2ncccc2Cl)cc1 [Example 456, 4-[4-(3-chloropyridin-2-yl)phenoxy]-3-cyano-N-1,3-thiazol-2-ylbenzenesulfonamide] | 1900 nM
Nc1[nH]ncc1-c1cc(Cl)ccc1Oc1cc(F)c(S(=O)(=O)Nc2ncns2)cc1Cl [Example 794, 4-[2-(5-amino-1H-pyrazol-4-yl)-4-chlorophenoxy]-5-chloro-2-fluoro-N-1,2,4-thiadiazol-5-ylbenzenesulfonamide] | 4.8 nM
CN(C)CCn1nc(C(F)(F)F)cc1-c1cccc(Oc2ccc(S(=O)(=O)Nc3nccs3)cc2C#N)c1 [Example 550, 3-cyano-4-(3-{1-[2-(dimethylamino)ethyl]-3-(trifluoromethyl)-1H-pyrazol-5-yl}phenoxy)-N-1,3-thiazol-2-ylbenzenesulfonamide] | 200 nM
N#Cc1cc(S(=O)(=O)Nc2nccs2)ccc1Oc1ccc(-c2ccccc2)nc1 [Example 646, 3-cyano-4-[(6-phenylpyridin-3-yl)oxy]-N-1,3-thiazol-2-ylbenzenesulfonamide] | 2800 nM
CN1CCC(c2cccc(Oc3ccc(S(=O)(=O)Nc4ccc(F)cn4)cc3C#N)c2)CC1 [Example 573, 3-cyano-N-(5-fluoropyridin-2-yl)-4-[3-(1-methylpiperidin-4-yl)phenoxy]benzenesulfonamide] | 7300 nM
Nc1ccnc(-c2cc(Cl)ccc2Oc2cc(F)c(S(=O)(=O)Nc3ncns3)cc2Cl)c1 [Example 554, 4-[2-(4-aminopyridin-2-yl)-4-chlorophenoxy]-5-chloro-2-fluoro-N-1,2,4-thiadiazol-5-ylbenzenesulfonamide] | 120 nM

More lines, now with the values ahead:

IC50 | SMILES
160 nM | N#Cc1cc(S(=O)(=O)Nc2ncc(Cl)s2)ccc1Oc1ccc(Cl)cc1C1CNC1 [Example 594, 4-(2-Azetidin-3-yl-4-chlorophenoxy)-N-(5-chloro-1,3-thiazol-2-yl)-3-cyanobenzenesulfonamide]
>300 nM | Cn1ncnc1-c1cc(Cl)ccc1Oc1ccc(S(=O)(=O)Nc2ncc(F)s2)cc1C#N [Example 717, 4-[4-chloro-2-(1-methyl-1H-1,2,4-triazol-5-yl)phenoxy]-3-cyano-N-(5-fluoro-1,3-thiazol-2-yl)benzenesulfonamide]
2900 nM | N#Cc1cc(S(=O)(=O)Nc2cscn2)ccc1Oc1ccc(Cl)cc1-c1cnn(C(F)F)c1 [Example 394, 4-{4-chloro-2-[1-(difluoromethyl)-1H-pyrazol-4-yl]phenoxy}-3-cyano-N-1,3-thiazol-4-ylbenzenesulfonamide]
14 nM | N#Cc1cc(S(=O)(=O)Nc2nccs2)ccc1Oc1ccc(Cl)cc1-c1ccn[nH]1 [Example 709, 4-[4-chloro-2-(1H-pyrazol-5-yl)phenoxy]-3-cyano-N-1,3-thiazol-2-ylbenzenesulfonamide]
11 nM | N#Cc1cc(S(=O)(=O)Nc2nccs2)ccc1Oc1ccc(OC(F)(F)F)cc1-c1cn[nH]c1 [Example 704, 3-cyano-4-[2-(1H-pyrazol-4-yl)-4-(trifluoromethoxy)phenoxy]-N-1,3-thiazol-2-ylbenzenesulfonamide]
170 nM | Cn1nc(C(F)(F)F)cc1-c1ccc(Oc2ccc(S(=O)(=O)Nc3ncc(F)s3)cc2C#N)c(F)c1 [Example 535, 3-cyano-4-{2-fluoro-4-[1-methyl-3-(trifluoromethyl)-1H-pyrazol-5-yl]phenoxy}-N-(5-fluoro-1,3-thiazol-2-yl)benzenesulfonamide]

same assay, conditions: estimated IC50; hSCN9A HEK cells, PatchXpress platform; Examples 815-1040

SMILES | IC50
Nc1cc(-c2cc(Cl)ccc2Oc2ccc(S(=O)(=O)Nc3ccncn3)cc2Cl)ccn1 [Example 944, 4-[2-(2-aminopyridin-4-yl)-4-chlorophenoxy]-3-chloro-N-pyrimidin-4-ylbenzenesulfonamide] | 31 nM
O=C(c1cccc(-c2cc(Cl)ccc2Oc2cc(F)c(S(=O)(=O)Nc3ncns3)cc2Cl)c1)N1CC(O)C1 [Example 824, 5-chloro-4-({5-chloro-3′-[(3-hydroxyazetidin-1-yl)carbonyl]biphenyl-2-yl}oxy)-2-fluoro-N-1,2,4-thiadiazol-5-ylbenzenesulfonamide] | 4.7 nM
Cn1nccc1-c1cc(Cl)ccc1Oc1ccc(S(=O)(=O)Nc2ncccn2)cc1Cl [Example 955, 3-chloro-4-[4-chloro-2-(1-methyl-1H-pyrazol-5-yl)phenoxy]-N-pyrimidin-2-ylbenzenesulfonamide] | 76 nM
O=S(=O)(Nc1cscn1)c1cc(Cl)c(Oc2ccc(Cl)cc2-c2ccnnc2)cc1F [Example 845, 5-chloro-4-(4-chloro-2-pyridazin-4-ylphenoxy)-2-fluoro-N-1,3-thiazol-4-ylbenzenesulfonamide] | 41 nM
N#Cc1cc(S(=O)(=O)Nc2nncs2)ccc1Oc1ccc(OC(F)(F)F)cc1-c1ccnnc1 [Example 933, 3-cyano-4-[2-pyridazin-4-yl-4-(trifluoromethoxy)phenoxy]-N-1,3,4-thiadiazol-2-ylbenzenesulfonamide] | >100 nM
Nc1cc(-c2cc(Cl)ccc2Oc2ccc(S(=O)(=O)Nc3cccnn3)cc2Cl)ccn1 [Example 1014, 4-[2-(2-aminopyridin-4-yl)-4-chlorophenoxy]-3-chloro-N-pyridazin-3-ylbenzenesulfonamide] | 10 nM
Cc1nnc(NS(=O)(=O)c2cc(Cl)c(Oc3ccc(Cl)cc3-c3ccnn3C)cc2F)s1 [Example 817, 5-chloro-4-[4-chloro-2-(1-methyl-1H-pyrazol-5-yl)phenoxy]-2-fluoro-N-(5-methyl-1,3,4-thiadiazol-2-yl)benzenesulfonamide] | 300 nM

Next, values leading:

IC50 | SMILES
1300 nM | COC(=O)N1CC(c2cc(Cl)ccc2Oc2ccc(S(=O)(=O)Nc3nccs3)cc2C#N)C1 [Example 995, methyl 3-(5-chloro-2-{2-cyano-4-[(1,3-thiazol-2-ylamino)sulfonyl]phenoxy}phenyl)azetidine-1-carboxylate]
780 nM | Cn1cc(-c2cc(Cl)ccc2Oc2ccc(S(=O)(=O)Nc3ncns3)cc2C#N)ccc1=O [Example 908, 4-[4-chloro-2-(1-methyl-6-oxo-1,6-dihydropyridin-3-yl)phenoxy]-3-cyano-N-1,2,4-thiadiazol-5-ylbenzenesulfonamide]
20 nM | COC(=O)c1cccc(-c2cc(Cl)ccc2Oc2ccc(S(=O)(=O)Nc3ncns3)cc2C#N)c1 [Example 1003, methyl 5′-chloro-2′-{2-cyano-4-[(1,2,4-thiadiazol-5-ylamino)sulfonyl]phenoxy}biphenyl-3-carboxylate]
57 nM | N#Cc1cc(S(=O)(=O)Nc2ncns2)ccc1Oc1ccc(Cl)cc1C1CNC1 [Example 906, 4-(2-azetidin-3-yl-4-chlorophenoxy)-3-cyano-N-1,2,4-thiadiazol-5-ylbenzenesulfonamide]
